As a reminder, the inhibition is the drop in the measured response relative to a control, in per cent. The melting point is the temperature, or range, at which the solid turns liquid.

Series [1] deals with POLCO—Wild buckwheat (Polygonum convolvulus). Briefly: General postemergence herbicidal activity, wild buckwheat. The format is in vivo. As to conditions: Fallopia convolvulus, post-emergence, 336 h; post-emergent, rate 140 g ai/ha, visual score after 14 days (0 no injury, 100 complete kill); read-out: % Growth Reduction POLCO. On the procedure:
(§1) Seeds or nutlets of the desired test plant species were planted in Sun Gro MetroMix® 306 planting mixture, which typically has a pH of 6.0 to 6.8 and an organic matter content of about 30 percent, in plastic pots with a surface area of 64 square centimeters. When required to ensure good germination and healthy plants, a fungicide treatment and/or other chemical or physical treatment was applied. The plants were grown for 7-21 days in a greenhouse with an approximate 15 hour photoperiod which was maintained at about 23-29° C. during the day and 22-28° C. during the night. Nutrients and water were added on a regular basis and supplemental lighting was provided with overhead metal halide 1000-Watt lamps as necessary. The plants were employed for testing when they reached the first or second true leaf stage.
(§2) A weighed amount, determined by the highest rate to be tested, of each test compound was placed in a 25 mL glass vial and was dissolved in 4 mL of a 97:3 v/v (volume/volume) mixture of acetone and dimethyl sulfoxide (DMSO) to obtain concentrated stock solutions. […] The concentrated stock solutions obtained were diluted with 20 mL of an aqueous mixture containing acetone, water, isopropyl alcohol, DMSO, Atplus 411F crop oil concentrate, and Triton X-155 surfactant in a 48.5:39:10:1.5:1.0:0.02 v/v ratio to obtain spray solutions containing the highest application rates. Additional application rates were obtained by serial dilution of 12 mL of the high rate solution into a solution containing 2 mL of 97:3 v/v (volume/volume) mixture of acetone and DMSO and 10 mL of an aqueous mixture containing acetone, water, isopropyl alcohol, DMSO, Atplus 411F crop oil concentrate, and Triton X-155 surfactant in a 48.5:39:10:1.5:1.0:0.02 v/v ratio to obtain ½X, ¼X, ⅛X and 1/16X rates of the high rate. Compound requirements are based upon a 12 mL application volume at a rate of 187 L/ha. Formulated compounds were applied to the plant material with an overhead Mandel track sprayer equipped with 8002E nozzles calibrated to deliver 187 L/ha over an application area of 0.503 square meters at a spray height of 18 inches […] above the average plant canopy height. Control plants were sprayed in the same manner with the solvent blank.
(§3) The treated plants and control plants were placed in a greenhouse as described above and watered by sub-irrigation to prevent wash-off of the test compounds. After 14 days, the condition of the test plants as compared with that of the untreated plants was determined visually and scored on a scale of 0 to 100 percent where 0 corresponds to no injury and 100 corresponds to complete kill.

Series [2] concerns SORVU—Common sorghum (Sorghum vulgare). Briefly: General preemergence herbicidal activity, common sorghum. The note with it: pre-emergent, rate 140 g ai/ha, visual score after 20-22 days (0 no injury, 100 complete kill or no emergence), read-out: % Growth Inhibition SORVU. Format: in vivo. The source says: (§4) Seeds of the desired test plant species were planted in a soil matrix prepared by mixing a loam soil (43 percent silt, 19 percent clay, and 38 percent sand, with a pH of about 8.1 and an organic matter content of about 1.5 percent) and sand in a 70 to 30 ratio. The soil matrix was contained in plastic pots with a surface area of 113 square centimeters. When required to ensure good germination and healthy plants, a fungicide treatment and/or other chemical or physical treatment was applied. A weighed amount, determined by the highest rate to be tested, of each test compound was placed in a 25 mL glass vial and was dissolved in 6 mL of a 97:3 v/v (volume/volume) mixture of acetone and DMSO to obtain concentrated stock solutions. […] The stock solutions obtained were diluted with 18 mL of a 0.1% v/v aqueous solution of Tween® 20 surfactant to obtain spray solutions containing the highest application rate. Additional application rates were obtained by serial dilution of 12 mL of the high rate solution into a solution containing 3 mL of 97:3 v/v mixture of acetone and DMSO and 9 mL of the 0.1% v/v aqueous solution of Tween® 20 surfactant to obtain 1⁄2X, 1⁄4X, 1⁄8X and 1/16X rates of the high rate. Compound requirements are based upon a 12 mL application volume at a rate of 187 L/ha. Formulated compounds were applied to the plant material with an overhead Mandel track sprayer equipped with […] nozzles calibrated to deliver 187 L/ha over an application area of 0.503 square meters at a spray height of 18 inches (43 cm) above the soil surface. Control plants were sprayed in the same manner with the solvent blank. The treated pots and control pots were placed in a greenhouse maintained with an approximate 15 hour photoperiod and temperatures of about 23-29° C. during the day and 22-28° C. during the night. Nutrients and water were added on a regular basis and supplemental lighting was provided with overhead metal halide 1000-Watt lamps as necessary. The water was added by top-irrigation. After 20-22 days, the condition of the test plants that germinated and grew as compared with that of the untreated plants that emerged and grew was determined visually and scored on a scale of 0 to 100 percent where 0 corresponds to no injury and 100 corresponds to complete kill or no emergence.

The test system of series [3] is ABUTH—Velvetleaf (Abutilon theophrasti). As to the kind of experiment: General preemergence herbicidal activity, velvetleaf. The format is in vivo. As to conditions: pre-emergent, rate 140 g ai/ha, visual score after 20-22 days (0 no injury, 100 complete kill or no emergence), read-out: % Growth Inhibition ABUTH.
Source text: as §4

The test system of series [4] is ECHCG—Barnyardgrass (Echinochloa crus-galli). Briefly: General postemergence herbicidal activity, barnyardgrass. Format: in vivo. As to conditions: post-emergence, 336 h, post-emergent, rate 140 g ai/ha, visual score after 14 days (0 no injury, 100 complete kill), read-out: % Growth Reduction ECHCG. As for the experimental part:
as §1, §2, §3

Series [5] concerns CHEAL—Common lambsquarters (Chenopodium album). As to the kind of experiment: General preemergence herbicidal activity, common lambsquarters. The format is in vivo. The note with it: pre-emergent, rate 140 g ai/ha, visual score after 20-22 days (0 no injury, 100 complete kill or no emergence), read-out: % Growth Inhibition CHEAL.
Source text: as §4

For series [6], the system named is CIRAR—Canada thistle (Cirsium arvense). Briefly: General postemergence herbicidal activity, Canada thistle. As to conditions: post-emergence, 336 h, post-emergent, rate 140 g ai/ha, visual score after 14 days (0 no injury, 100 complete kill), read-out: % Growth Reduction CIRAR. Format: in vivo. As for the experimental part: as §1, §2, §3
Series [7] deals with ZEAMX—Corn (Zea mays). As to the kind of experiment: General preemergence herbicidal activity, corn. The format is in vivo. As to conditions: pre-emergent, rate 140 g ai/ha, visual score after 20-22 days (0 no injury, 100 complete kill or no emergence), read-out: % Growth Inhibition ZEAMX.
Source text: as §4

For series [8], the system named is HELAN—Common sunflower (Helianthus annuus). Briefly: General preemergence herbicidal activity, common sunflower. Format: in vivo. The note with it: pre-emergent, rate 140 g ai/ha, visual score after 20-22 days (0 no injury, 100 complete kill or no emergence), read-out: % Growth Inhibition HELAN.
Source text: as §4

In series [9] the test system is ABUTH—Velvetleaf (Abutilon theophrasti). Briefly: General postemergence herbicidal activity, velvetleaf. Format: in vivo. The note with it: post-emergence, 336 h, post-emergent, rate 140 g ai/ha, visual score after 14 days (0 no injury, 100 complete kill), read-out: % Growth Reduction ABUTH. As for the experimental part: as §1, §2, §3

For the compound `Nc1nc(-c2ccc(Cl)cc2F)nc(C(=O)O)c1Cl` [Compound 11, 6-Amino-5-chloro-2-(4-chloro-2-fluorophenyl)pyrimidine-4-carboxylic acid], the melting point lay in the range of 194 to 196 °C. In series [1], the pest or weed control at 140 g/ha was found to be 100%. For the same compound, in [2], the inhibition at 140 g/ha was 95%. Besides, the inhibition at 140 g/ha in series [3] was 90%. For the same compound, the pest or weed control at 140 g/ha in [4] amounted to 85%. The inhibition at 140 g/ha in series [5] was 100%. Moreover, the pest or weed control at 140 g/ha in series [6] was determined as 100%. Besides, the inhibition at 140 g/ha in [7] worked out at 0%. Moreover, in [8], the inhibition at 140 g/ha is 95%. Also, the pest or weed control at 140 g/ha in series [9] was 99%.
`Nc1nc(-c2ccc(Cl)c(F)c2F)nc(C(=O)O)c1Cl` [Compound 12, 6-Amino-5-chloro-2-(4-chloro-2,3-difluorophenyl)pyrimidine-4-carboxylic acid] came in with a melting point of 209 to 211 °C. Moreover, the pest or weed control at 140 g/ha in series [1] came to 100%. Further, in series [2], the inhibition at 140 g/ha is 90%. Further, in series [3], the inhibition at 140 g/ha is 100%. Moreover, the pest or weed control at 140 g/ha in series [4] is 90%. Moreover, the inhibition at 140 g/ha in series [5] was 100%. Besides, the pest or weed control at 140 g/ha in [6] was 90%. Besides, the inhibition at 140 g/ha in [7] came out at 15%. Moreover, in [8], the inhibition at 140 g/ha stood at 100%. For the same compound, the pest or weed control at 140 g/ha in [9] is 100%.
Turning to `Cc1ccc(-c2nc(N)c(Cl)c(C(=O)O)n2)c(F)c1F` [Compound 14, 6-Amino-5-chloro-2-(2,3-difluoro-4-methylphenyl)pyrimidine-4-carboxylic acid], the pest or weed control at 140 g/ha in series [1] was 80%; in series [4], 95%; in [6] it was 85%; in [9], 90%. In addition, the inhibition at 140 g/ha turned out to be 40% in [2]; 100% in [3]; 100% in [5]; 30% in series [7]; 60% in [8].
Turning to `Nc1nc(-c2ccc(C(F)(F)F)cc2F)nc(C(=O)O)c1Cl` [Compound 15, 6-Amino-5-chloro-2-(2-fluoro-4-trifluoromethylphenyl)pyrimidine-4-carboxylic acid], the pest or weed control at 140 g/ha was determined as 65% in [1], 50% in series [4], 80% in series [6] and 40% in series [9]. Moreover, the inhibition at 140 g/ha was found to be 0% in series [2]; 10% in series [3]; 60% in series [5]; 65% in [7]; 10% in [8].
Regarding `Nc1nc(-c2ccc(C(F)(F)F)c(F)c2F)nc(C(=O)O)c1Cl` [Compound 16, 6-Amino-5-chloro-2-(2,3-difluoro-4-trifluoromethylphenyl)pyrimidine-4-carboxylic acid], the pest or weed control at 140 g/ha in series [1] came out at 95%; in series [4], 90%; in series [6], 90%; in [9] it was 65%. For the same compound, the inhibition at 140 g/ha in series [2] amounted to 60%; in [3] it was 60%; in [5], 100%; in [7], 30%; in series [8], 65%.

The values are drawn from patent US8598085B2, “2-(2-fluoro-substituted phenyl)-6-amino-5-chloro-4-pyrimidinecarboxylates and their use as herbicides” (Dow AgroSciences LLC, priority 2007, dated 2013).
